PubChem BioAssay AID330 (DTP/NCI, 2004)
Where “and” joins values, the source holds several entries; their conditions need not be identical. Identical values can stand only once. Inconclusive results and toxic doses are left out.

System: P388 leukemia ip, CD2F1 mice, survival T/C
Test: NCI In Vivo Anticancer Drug Screen. Data for tumor model P388 Leukemia (intraperitoneal) in CD2F1 (CDF1) mice
Details: endpoint: median survival time, higher = longer survival
Outline: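 Mice carrying the transplanted tumor received test compound or vehicle. Survival was recorded in each group, and the value is the treated-group measurement divided by that of the vehicle-treated control group.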

[1] = dose: 60.0 mg/kg/injection, schedule: Q01DX005 (ip), vehicle: saline with Tween-80
[2] = dose: 120.0 mg/kg/injection, schedule: Q01DX005 (ip), vehicle: saline with Tween-80
[3] = dose: 240.0 mg/kg/injection, schedule: Q01DX005 (ip), vehicle: saline with Tween-80
[4] = dose: 25.0 mg/kg/injection, schedule: Q01DX005 (ip), vehicle: Klucel (hydroxypropylcellulose) (HPC)
[5] = dose: 50.0 mg/kg/injection, schedule: Q01DX005 (ip), vehicle: Klucel (hydroxypropylcellulose) (HPC)
[6] = dose: 100.0 mg/kg/injection, schedule: Q01DX005 (ip), vehicle: Klucel (hydroxypropylcellulose) (HPC)
[7] = dose: 200.0 mg/kg/injection, schedule: Q01DX005 (ip), vehicle: Klucel (hydroxypropylcellulose) (HPC)
[8] = dose: 100.0 mg/kg/injection, schedule: Q01DX009 (ip), vehicle: saline with Tween-80
[9] = dose: 100.0 mg/kg/injection, schedule: Q01DX009 (ip), vehicle: Klucel (hydroxypropylcellulose) (HPC)
[10] = dose: 200.0 mg/kg/injection, schedule: Q01DX009 (ip), vehicle: Klucel (hydroxypropylcellulose) (HPC)
[11] = dose: 400.0 mg/kg/injection, schedule: Q01DX009 (ip), vehicle: Klucel (hydroxypropylcellulose) (HPC)
[12] = dose: 50.0 mg/kg/injection, schedule: Q01DX005 (ip), vehicle: saline with Tween-80
[13] = dose: 100.0 mg/kg/injection, schedule: Q01DX005 (ip), vehicle: saline with Tween-80
[14] = dose: 200.0 mg/kg/injection, schedule: Q01DX005 (ip), vehicle: saline with Tween-80
[15] = dose: 30.0 mg/kg/injection, schedule: Q01DX005 (ip), vehicle: saline with Tween-80
[16] = dose: 50.0 mg/kg/injection, schedule: Q01DX009 (ip), vehicle: saline with Tween-80
[17] = dose: 50.0 mg/kg/injection, schedule: Q01DX009 (ip), vehicle: Klucel (hydroxypropylcellulose) (HPC)

## OCC1CC2C3CC(CO)C(C3)C2C1 (stereo not drawn)
[1]
  T/C: 105 % of control
[2]
  T/C: 100 % of control
[3]
  T/C: 98 % of control

## O=C(NN1C(=O)C=C(O)/C1=C\c1ccccc1)c1ccccc1
[4]
  T/C: 99 % of control and 104 % of control
[5]
  T/C: 101 % of control and 104 % of control and 111 % of control
[6]
  T/C: 103 % of control and 105 % of control (2×)
[7]
  T/C: 100 % of control and 105 % of control and 121 % of control

## O=S(=O)(O)c1ccccc1N=Nc1ccc(N(CCCl)CCCl)cc1
[8]
  T/C: 156 % of control

## O=C(Oc1ccc(Cl)cc1Cl)c1ccc([N+](=O)[O-])cc1
[9]
  T/C: 96 % of control
[10]
  T/C: 87 % of control
[11]
  T/C: 96 % of control

## CCN1CC2(OC(=O)c3ccccc3NC(C)=O)CCC(OC)C34C1C(CC23)C1(O)CC(OC)C2CC4C1(O)C2OC (stereo not drawn)
dose: 4.0 mg/kg/injection, schedule: Q01DX009 (ip), vehicle: Klucel (hydroxypropylcellulose) (HPC)
  T/C: 92 % of control
dose: 8.0 mg/kg/injection, schedule: Q01DX009 (ip), vehicle: Klucel (hydroxypropylcellulose) (HPC)
  T/C: 94 % of control
dose: 16.0 mg/kg/injection, schedule: Q01DX009 (ip), vehicle: Klucel (hydroxypropylcellulose) (HPC)
  T/C: 97 % of control
dose: 32.0 mg/kg/injection, schedule: Q01DX009 (ip), vehicle: Klucel (hydroxypropylcellulose) (HPC)
  T/C: 91 % of control

## O=C(OCCN(CCOC(=O)c1ccc([N+](=O)[O-])cc1)c1c[nH]c(=O)[nH]c1=O)c1ccc([N+](=O)[O-])cc1
[12]
  T/C: 96 % of control
[13]
  T/C: 104 % of control
[14]
  T/C: 96 % of control

## CCCCOc1cccc2c(NCCCNCCCNc3c4ccccc4nc4c(OCCCC)cccc34)c3ccccc3nc12
dose: 0.63 mg/kg/injection, schedule: Q01DX009 (ip), vehicle: other
  T/C: 114 % of control
dose: 1.25 mg/kg/injection, schedule: Q01DX009 (ip), vehicle: other
  T/C: 121 % of control
dose: 2.5 mg/kg/injection, schedule: Q01DX009 (ip), vehicle: other
  T/C: 120 % of control and 124 % of control
dose: 5.0 mg/kg/injection, schedule: Q01DX009 (ip), vehicle: other
  T/C: 100 % of control

## CCN(CC)c1ccc2cc3ccc(=[N+](CC)CC)cc-3oc2c1
dose: 1.0 mg/kg/injection, schedule: Q01DX009 (ip), vehicle: saline
  T/C: 109 % of control

## COc1c2c(c(OC)c3c1C(=O)c1ccccc1C3=O)C(=O)CCC2
[15]
  T/C: 93 % of control
[1]
  T/C: 91 % of control
[2]
  T/C: 87 % of control
[3]
  T/C: 88 % of control

## C1OC1CO[C@H]1CO[C@H]2[C@@H]1OC[C@@H]2OCC1CO1 (stereo partly drawn)
dose: 600.0 mg/kg/injection, schedule: Q04DX003 (ip), vehicle: saline
  T/C: 172 % of control

## O=C(NNC(=O)c1cccnc1)Nc1cccc(Cl)c1Cl
dose: 12.5 mg/kg/injection, schedule: Q01DX009 (ip), vehicle: saline with Tween-80
  T/C: 104 % of control
dose: 25.0 mg/kg/injection, schedule: Q01DX009 (ip), vehicle: saline with Tween-80
  T/C: 100 % of control
[16]
  T/C: 95 % of control

## CN(N=O)C(=O)NCCSSCCNC(=O)N(C)N=O
dose: 20.0 mg/kg/injection, schedule: Q04DX003 (ip), vehicle: saline with Tween-80
  T/C: 115 % of control
dose: 40.0 mg/kg/injection, schedule: Q01DX009 (ip), vehicle: saline with Tween-80
  T/C: 177 % of control
dose: 80.0 mg/kg/injection, schedule: Q04DX003 (ip), vehicle: saline with Tween-80
  T/C: 155 % of control

## O=C(NCCN1CCOCC1)c1cc2ccccc2oc1=O
[1]
  T/C: 93 % of control
[2]
  T/C: 91 % of control
[3]
  T/C: 92 % of control

## C/C(=N/N(C)C)c1ccncc1
[17]
  T/C: 104 % of control
[9]
  T/C: 107 % of control
[10]
  T/C: 113 % of control

## CC(=O)n1oc2ccc(Br)cc2c1=O
[5]
  T/C: 100 % of control
[6]
  T/C: 95 % of control
[7]
  T/C: 100 % of control

## COc1cccc2c1C(=O)c1c(O)c3c(c(O)c1C2=O)C[C@@](O)(/C(C)=N/NS(C)(=O)=O)C[C@@H]3OC1CC(N)C(O)C(C)O1 (stereo partly drawn)
dose: 3.13 mg/kg/injection, schedule: Q01DX009 (ip), vehicle: water
  T/C: 157 % of control
dose: 6.25 mg/kg/injection, schedule: Q01DX009 (ip), vehicle: water
  T/C: 164 % of control and 166 % of control
dose: 12.5 mg/kg/injection, schedule: Q01DX009 (ip), vehicle: water
  T/C: 183 % of control and 187 % of control
dose: 25.0 mg/kg/injection, schedule: Q01DX009 (ip), vehicle: saline
  T/C: 166 % of control
dose: 25.0 mg/kg/injection, schedule: Q01DX009 (ip), vehicle: water
  T/C: 117 % of control and 201 % of control
dose: 50.0 mg/kg/injection, schedule: Q01DX009 (ip), vehicle: saline
  T/C: 193 % of control
dose: 50.0 mg/kg/injection, schedule: Q01DX009 (ip), vehicle: water
  T/C: 99 % of control
dose: 100.0 mg/kg/injection, schedule: Q01DX009 (ip), vehicle: saline
  T/C: 283 % of control
dose: 200.0 mg/kg/injection, schedule: Q01DX009 (ip), vehicle: saline
  T/C: 108 % of control

## CCCCNC1=C(Cl)C(=O)c2ccccc2C1=O
[17]
  T/C: 92 % of control
[9]
  T/C: 92 % of control
[10]
  T/C: 91 % of control
[11]
  T/C: 105 % of control

## c1cnn([B-]2(n3cccn3)n3ccc[n+]3[B-](n3cccn3)(n3cccn3)n3ccc[n+]32)c1
[1]
  T/C: 102 % of control
[2]
  T/C: 102 % of control
[3]
  T/C: 100 % of control

## O=C1C=CC(=O)C2=C1C1C3=C(C(=O)C=CC3=O)C2c2ccccc21
[16]
  T/C: 110 % of control
[8]
  T/C: 106 % of control
dose: 200.0 mg/kg/injection, schedule: Q01DX009 (ip), vehicle: saline with Tween-80
  T/C: 101 % of control

## CN(C)c1ccc(Nc2c3ccccc3nc3ccccc23)cc1
dose: 12.5 mg/kg/injection, schedule: Q04DX002 (ip), vehicle: distilled water + Tween-80
  T/C: 113 % of control
dose: 13.0 mg/kg/injection, schedule: Q04DX003 (ip), vehicle: saline with Tween-80
  T/C: 100 % of control and 103 % of control
dose: 21.6 mg/kg/injection, schedule: Q04DX003 (ip), vehicle: saline with Tween-80
  T/C: 107 % of control and 111 % of control
dose: 25.0 mg/kg/injection, schedule: Q04DX002 (ip), vehicle: distilled water + Tween-80
  T/C: 150 % of control and 156 % of control
dose: 25.9 mg/kg/injection, schedule: Q04DX003 (ip), vehicle: saline
  T/C: 109 % of control
dose: 36.0 mg/kg/injection, schedule: Q04DX003 (ip), vehicle: saline with Tween-80
  T/C: 110 % of control and 111 % of control
dose: 50.0 mg/kg/injection, schedule: Q04DX002 (ip), vehicle: distilled water + Tween-80
  T/C: 185 % of control and 196 % of control
dose: 100.0 mg/kg/injection, schedule: Q04DX003 (ip), vehicle: saline with Tween-80
  T/C: 157 % of control
dose: 120.0 mg/kg/injection, schedule: Q04DX003 (ip), vehicle: saline
  T/C: 179 % of control

## C1=C(c2ccc(OCc3ccccc3)c(OCc3ccccc3)c2)CC2CCCCC2C1 (stereo not drawn)
dose: 100.0 mg/kg/injection, schedule: Q04DX002 (ip), vehicle: saline with Tween-80
  T/C: 93 % of control
dose: 200.0 mg/kg/injection, schedule: Q04DX002 (ip), vehicle: saline with Tween-80
  T/C: 93 % of control
dose: 400.0 mg/kg/injection, schedule: Q04DX002 (ip), vehicle: saline with Tween-80
  T/C: 111 % of control

## O=c1c2ccccc2ncn1-c1ccc(O)c(CN(CCCl)CCCl)c1
dose: 100.0 mg/kg/injection, schedule: Q01DX001 (ip), vehicle: saline with Tween-80
  T/C: 101 % of control
dose: 200.0 mg/kg/injection, schedule: Q01DX001 (ip), vehicle: saline with Tween-80
  T/C: 97 % of control
dose: 400.0 mg/kg/injection, schedule: Q01DX001 (ip), vehicle: saline with Tween-80
  T/C: 93 % of control

## CC1COS(=O)(=O)CS(=O)(=O)O1 (stereo not drawn)
[1]
  T/C: 100 % of control

## CCCCCCCCCCCCCCCCCCCC(O)CCCCCCCCC (stereo not drawn)
dose: 15.0 mg/kg/injection, schedule: Q01DX005 (ip), vehicle: saline with Tween-80
  T/C: 102 % of control
[15]
  T/C: 94 % of control
[1]
  T/C: 87 % of control
[2]
  T/C: 86 % of control

## Cc1c(N=Nc2ccccc2Cl)c(-c2ccccc2)nn1C(=S)S
[12]
  T/C: 111 % of control
[13]
  T/C: 108 % of control
[14]
  T/C: 111 % of control

## Cc1onc(-c2c(F)cccc2Cl)c1C(=O)OCc1c(F)cccc1Cl
[1]
  T/C: 99 % of control
[2]
  T/C: 97 % of control
[3]
  T/C: 97 % of control

## O=C1C=CC(=O)C2=C1C1c3ccccc3C2c2ccccc21
[5]
  T/C: 101 % of control
[6]
  T/C: 110 % of control

## Cc1cc(N/N=C/c2ccc(Cl)cc2)c2cc3c(cc2n1)OCO3
dose: 12.5 mg/kg/injection, schedule: Q01DX005 (ip), vehicle: Klucel (hydroxypropylcellulose) (HPC)
  T/C: 98 % of control
[4]
  T/C: 103 % of control
[5]
  T/C: 102 % of control and 95 % of control
